# Species: Rattus norvegicus
# Assay: DrugMatrix - Regimen: Daily Repeat
# Format: toxicity, organism-based, Sprague-Dawley
# Design: regimen Daily Repeat, gender Male, age 6-8 weeks
# Details: in vivo, po, route oral GAVAGE, vehicle .5 % CMC; for ABSOLUTE BASOPHIL / ABSOLUTE EOSINOPHIL / ABSOLUTE LYMPHOCYTE / ABSOLUTE MONOCYTE / ABSOLUTE SEGMENTED NEUTROPHIL / BASOPHIL / EOSINOPHIL / ERYTHROCYTE COUNT / HEMATOCRIT / HEMOGLOBIN / LEUKOCYTE COUNT / LYMPHOCYTE / MEAN CORPUSCULAR HEMOGLOBIN / MEAN CORPUSCULAR HEMOGLOBIN CONCENTRATION / MEAN CORPUSCULAR VOLUME / MONOCYTE / NEUTROPHIL / NUCLEATED RED BLOOD CELLS / PLATELET COUNT: tissue Blood; for ALANINE AMINOTRANSFERASE / ALBUMIN / ALKALINE PHOSPHATASE / ASPARTATE AMINOTRANSFERASE / BLOOD UREA NITROGEN / CARBON DIOXIDE / CHLORIDE / CHOLESTEROL / CREATINE PHOSPHOKINASE / CREATININE / GLUCOSE / LACTATE DEHYDROGENASE / LIPASE / PHOSPHORUS / POTASSIUM / SODIUM / TOTAL BILIRUBIN / TOTAL PROTEIN / URIC ACID: tissue Plasma
# [1] = 0 mg/kg, 72 h, dose level Control, time 3 day
# [2] = 0 mg/kg, 120 h, dose level Control, time 5 day
# [3] = 50 mg/kg, 72 h, dose level Low, time 3 day
smiles,measurement,setting,value
CN(C)[C@@H]1C(O)=C(C(N)=O)C(=O)[C@@]2(O)C(O)=C3C(=O)c4c(O)ccc(Cl)c4[C@@](C)(O)[C@H]3C[C@@H]12 [CHLORTETRACYCLINE],ABSOLUTE BASOPHIL,[1],0 CELLS/uL
same,ABSOLUTE EOSINOPHIL,[1],32.5 CELLS/uL
same,ABSOLUTE LYMPHOCYTE,[1],13494.17 CELLS/uL
same,ABSOLUTE MONOCYTE,[1],474 CELLS/uL
same,ABSOLUTE SEGMENTED NEUTROPHIL,[1],1932.67 CELLS/uL
same,BASOPHIL,[1],0%
same,EOSINOPHIL,[1],0.17%
same,ERYTHROCYTE COUNT,[1],5.45 x10E6/uL
same,HEMATOCRIT,[1],34.32%
same,HEMOGLOBIN,[1],13.82 G/DL
same,LEUKOCYTE COUNT,[1],15.93 x10E3/uL
same,LYMPHOCYTE,[1],84.83%
same,MEAN CORPUSCULAR HEMOGLOBIN,[1],25.38 pg
same,MEAN CORPUSCULAR HEMOGLOBIN CONCENTRATION,[1],40.27 G/DL
same,MEAN CORPUSCULAR VOLUME,[1],63.05 fL
same,MONOCYTE,[1],3%
same,NEUTROPHIL,[1],12%
same,NUCLEATED RED BLOOD CELLS,[1],0.67 /100WBC
same,PLATELET COUNT,[1],1188.5 x10E3/uL
same,ALANINE AMINOTRANSFERASE,[1],54.83 u/L
same,ALBUMIN,[1],4.22 G/DL
same,ALKALINE PHOSPHATASE,[1],427.67 u/L
same,ASPARTATE AMINOTRANSFERASE,[1],86.5 u/L
same,BLOOD UREA NITROGEN,[1],15.33 mg/dL
same,CARBON DIOXIDE,[1],24.83 mmol/L
same,CHLORIDE,[1],102.33 MEQ/L
same,CHOLESTEROL,[1],71.67 mg/dL
same,CREATINE PHOSPHOKINASE,[1],442.5 u/L
same,CREATININE,[1],0.19 mg/dL
same,GLUCOSE,[1],160.67 mg/dL
same,LACTATE DEHYDROGENASE,[1],236.5 u/L
same,LIPASE,[1],9 u/L
same,PHOSPHORUS,[1],11.97 mg/dL
same,POTASSIUM,[1],6.2 MEQ/L
same,SODIUM,[1],142.85 MEQ/L
same,TOTAL BILIRUBIN,[1],0.2 mg/dL
same,TOTAL PROTEIN,[1],5.8 G/DL
same,URIC ACID,[1],1.3 mg/dL
same,ABSOLUTE BASOPHIL,[2],0 CELLS/uL
same,ABSOLUTE EOSINOPHIL,[2],114.5 CELLS/uL
same,ABSOLUTE LYMPHOCYTE,[2],14614 CELLS/uL
same,ABSOLUTE MONOCYTE,[2],173 CELLS/uL
same,ABSOLUTE SEGMENTED NEUTROPHIL,[2],1048.5 CELLS/uL
same,BASOPHIL,[2],0%
same,EOSINOPHIL,[2],0.67%
same,ERYTHROCYTE COUNT,[2],5.66 x10E6/uL
same,HEMATOCRIT,[2],35.52%
same,HEMOGLOBIN,[2],14.27 G/DL
same,LEUKOCYTE COUNT,[2],15.95 x10E3/uL
same,LYMPHOCYTE,[2],91.33%
same,MEAN CORPUSCULAR HEMOGLOBIN,[2],25.23 pg
same,MEAN CORPUSCULAR HEMOGLOBIN CONCENTRATION,[2],40.2 G/DL
same,MEAN CORPUSCULAR VOLUME,[2],62.7 fL
same,MONOCYTE,[2],1.17%
same,NEUTROPHIL,[2],6.83%
same,NUCLEATED RED BLOOD CELLS,[2],0.33 /100WBC
same,PLATELET COUNT,[2],1229 x10E3/uL
same,ALANINE AMINOTRANSFERASE,[2],58.67 u/L
same,ALBUMIN,[2],4.32 G/DL
same,ALKALINE PHOSPHATASE,[2],382.5 u/L
same,ASPARTATE AMINOTRANSFERASE,[2],81.67 u/L
same,BLOOD UREA NITROGEN,[2],17.67 mg/dL
same,CARBON DIOXIDE,[2],27.17 mmol/L
same,CHLORIDE,[2],102.33 MEQ/L
same,CHOLESTEROL,[2],63.67 mg/dL
same,CREATINE PHOSPHOKINASE,[2],227.67 u/L
same,CREATININE,[2],0.23 mg/dL
same,GLUCOSE,[2],155.33 mg/dL
same,LACTATE DEHYDROGENASE,[2],146.5 u/L
same,LIPASE,[2],10.67 u/L
same,PHOSPHORUS,[2],11.93 mg/dL
same,POTASSIUM,[2],6.85 MEQ/L
same,SODIUM,[2],143.95 MEQ/L
same,TOTAL BILIRUBIN,[2],0.18 mg/dL
same,TOTAL PROTEIN,[2],6.02 G/DL
same,URIC ACID,[2],1.63 mg/dL
same,ABSOLUTE BASOPHIL,[3],0 CELLS/uL
same,ABSOLUTE EOSINOPHIL,[3],126.67 CELLS/uL
same,ABSOLUTE LYMPHOCYTE,[3],10511.33 CELLS/uL
same,ABSOLUTE MONOCYTE,[3],344.33 CELLS/uL
same,ABSOLUTE SEGMENTED NEUTROPHIL,[3],817.67 CELLS/uL
same,BASOPHIL,[3],0%
same,EOSINOPHIL,[3],1%
same,ERYTHROCYTE COUNT,[3],5.49 x10E6/uL
same,HEMATOCRIT,[3],34.47%
same,HEMOGLOBIN,[3],13.47 G/DL
same,LEUKOCYTE COUNT,[3],11.8 x10E3/uL
same,LYMPHOCYTE,[3],89%
same,MEAN CORPUSCULAR HEMOGLOBIN,[3],24.57 pg
same,MEAN CORPUSCULAR HEMOGLOBIN CONCENTRATION,[3],39.13 G/DL
same,MEAN CORPUSCULAR VOLUME,[3],62.87 fL
same,MONOCYTE,[3],3%
same,NEUTROPHIL,[3],7%
same,NUCLEATED RED BLOOD CELLS,[3],0 /100WBC
same,PLATELET COUNT,[3],1083.33 x10E3/uL
same,ALANINE AMINOTRANSFERASE,[3],50.33 u/L
same,ALBUMIN,[3],4.07 G/DL
same,ALKALINE PHOSPHATASE,[3],403.67 u/L
same,ASPARTATE AMINOTRANSFERASE,[3],84.67 u/L
same,BLOOD UREA NITROGEN,[3],16.67 mg/dL
same,CARBON DIOXIDE,[3],26 mmol/L
same,CHLORIDE,[3],103.67 MEQ/L
same,CHOLESTEROL,[3],73.33 mg/dL
same,CREATINE PHOSPHOKINASE,[3],273.67 u/L
same,CREATININE,[3],0.15 mg/dL
same,GLUCOSE,[3],157.67 mg/dL
same,LACTATE DEHYDROGENASE,[3],157.33 u/L
same,LIPASE,[3],9.33 u/L
same,PHOSPHORUS,[3],12.13 mg/dL
same,POTASSIUM,[3],6.6 MEQ/L
same,SODIUM,[3],146.1 MEQ/L
same,TOTAL BILIRUBIN,[3],0.2 mg/dL
same,TOTAL PROTEIN,[3],5.67 G/DL
same,URIC ACID,[3],1.77 mg/dL

# From ChEMBL document CHEMBL3885881, “DrugMatrix”
